Results on 17 compounds are retold here after patent EP4803147A2.

Read-outs that look alike come from different tables or passages of the source.

In turn, `CCO[C@@H]1c2nc(cs2)-c2ccc3c(c2)c(c(-c2cc(C4=CCN(C(=O)OCc5ccccc5)CC4)cnc2[C@H](C)OC)n3CC)CC(C)(C)COC(=O)[C@@H]2CCCN(N2)C(=O)[C@H]1NC(=O)OC(C)(C)C` yielded a ring closure, yield of all isomers (from CCO[C@H](c1nc(Br)cs1)[C@H](NC(=O)OC(C)(C)C)C(=O)N1CCC[C@@H](C(=O)OCC(C)(C)Cc2c(-c3cc(C4=CCN(C(=O)OCc5ccccc5)CC4)cnc3[C@H](C)OC)n(CC)c3ccc(B4OC(C)(C)C(C)(C)O4)cc23)N1, cc_pd bond, Pd(DtBPF)Cl2, K3PO4, toluene, 40.7 mM, 70.0 °C, 1.0 h) of 39%. Regarding `CCn1c(-c2cccnc2[C@H](C)OC)c2c3cc(ccc31)-c1csc(n1)[C@@H](OCC(F)F)[C@H](NC(=O)OC(C)(C)C)C(=O)N1CCC[C@H](N1)C(=O)OCC(C)(C)C2`, the ring closure, yield of all isomers (from CCn1c(-c2cccnc2[C@H](C)OC)c(CC(C)(C)COC(=O)[C@@H]2CCCN(C(=O)[C@@H](NC(=O)OC(C)(C)C)[C@H](OCC(F)F)c3nc(Br)cs3)N2)c2cc(B3OC(C)(C)C(C)(C)O3)ccc21, cc_pd bond, Pd(DtBPF)Cl2, K3PO4, toluene, 10.0 mM, 60.0 °C, 1.0 h) was 59%. Turning to `CCO[C@@H]1c2nc(cs2)-c2ccc3c(c2)c(c(-c2cc([C@@H]4C[C@H]5COC[C@@H](C4)N5C(=O)OCC4c5ccccc5-c5ccccc54)cnc2[C@H](C)OC)n3CC)CC(C)(C)COC(=O)[C@@H]2CCCN(N2)C(=O)[C@H]1NC(=O)OC(C)(C)C`, the ring closure, yield of all isomers (from CCO[C@H](c1nc(Br)cs1)[C@H](NC(=O)OC(C)(C)C)C(=O)N1CCC[C@@H](C(=O)OCC(C)(C)Cc2c(-c3cc([C@@H]4C[C@H]5COC[C@@H](C4)N5C(=O)OCC4c5ccccc5-c5ccccc54)cnc3[C@H](C)OC)n(CC)c3ccc(B4OC(C)(C)C(C)(C)O4)cc23)N1, cc_pd bond, Pd(DtBPF)Cl2, toluene, 10.4 mM, 80.0 °C, 3.0 h) was determined as 65%. For the compound `CCn1c(-c2cccnc2[C@H](C)OC)c2c3cc(ccc31)-c1csc(n1)C[C@H](NC(=O)OC(C)(C)C)C(=O)N1CCC[C@H](N1)C(=O)OCC(C)(C)C2`, the ring closure, yield of all isomers (from CCn1c(-c2cccnc2[C@H](C)OC)c(CC(C)(C)CO)c2cc(-c3csc(C[C@H](NC(=O)OC(C)(C)C)C(=O)N4CCC[C@@H](C(=O)O)N4)n3)ccc21, ester bond, EDCI/HOBt/DIPEA, DCM, 12.65 mM, 25.0 °C, 16.0 h) is 81%. For `CCn1c(-c2cccnc2[C@H](C)OC)c2c3cc(ccc31)C1=CC(O[Si](c3ccccc3)(c3ccccc3)C(C)(C)C)CN(C1)C[C@H](NC(=O)OC(C)(C)C)C(=O)N1CCC[C@H](N1)C(=O)OCC(C)(C)C2` (some centres unmarked), for the setting “from CCn1c(-c2cccnc2[C@H](C)OC)c(CC(C)(C)COC(=O)[C@@H]2CCCN(C(=O)[C@H](CN3CC(Br)=CC(O[Si](c4ccccc4)(c4ccccc4)C(C)(C)C)C3)NC(=O)OC(C)(C)C)N2)c2cc(B3OC(C)(C)C(C)(C)O3)ccc21, cc_pd bond, Pd(dppf)Cl2, K2CO3, toluene, 20.0 mM, 65.0 °C, 2.0 h”, the ring closure, yield of all isomers stood at 42%. Consider `CCO[C@@H]1c2nc(cs2)-c2ccc3c(c2)c(c(-c2cc(C4=CC5COCC(C4)N5C(=O)OCC4c5ccccc5-c5ccccc54)cnc2[C@H](C)OC)n3CC)CC(C)(C)COC(=O)[C@@H]2CCCN(N2)C(=O)[C@H]1NC(=O)OC(C)(C)C`, for which the ring closure, yield of all isomers (from CCO[C@H](c1nc(Br)cs1)[C@H](NC(=O)OC(C)(C)C)C(=O)N1CCC[C@@H](C(=O)OCC(C)(C)Cc2c(-c3cc(C4=CC5COCC(C4)N5C(=O)OCC4c5ccccc5-c5ccccc54)cnc3[C@H](C)OC)n(CC)c3ccc(B4OC(C)(C)C(C)(C)O4)cc23)N1, cc_pd bond, Pd(dppf)Cl2.DCM, toluene, 205.0 mM, 80.0 °C, 3.0 h) came to 49%. `CCn1c(-c2cccnc2[C@H](C)OC)c2c3cc(ccc31)C1=CC[C@H](COC)N(C1)C[C@H](NC(=O)OC(C)(C)C)C(=O)N1CCC[C@H](N1)C(=O)OCC(C)(C)C2` yielded a ring closure, yield of all isomers (from CCn1c(-c2cccnc2[C@H](C)OC)c(CC(C)(C)COC(=O)[C@@H]2CCCN(C(=O)[C@H](CN3CC(Br)=CC[C@@H]3COC)NC(=O)OC(C)(C)C)N2)c2cc(B3OC(C)(C)C(C)(C)O3)ccc21, cc_pd bond, Pd(dppf)Cl2, K3PO4, toluene, 116.0 mM, 70.0 °C, 3.0 h) of 30%. The compound `CCn1c(-c2cccnc2[C@H](C)OC)c2c3cc(ccc31)-c1csc(n1)[C@@H](OCCN(C)C)[C@H](NC(=O)OC(C)(C)C)C(=O)N1CCC[C@H](N1)C(=O)OCC(C)(C)C2` returned a ring closure, yield of all isomers (from CCn1c(-c2cccnc2[C@H](C)OC)c(CC(C)(C)COC(=O)[C@@H]2CCCN(C(=O)[C@@H](NC(=O)OC(C)(C)C)[C@H](OCCN(C)C)c3nc(Br)cs3)N2)c2cc(B3OC(C)(C)C(C)(C)O3)ccc21, cc_pd bond, Pd(dtbpf)Cl2, K3PO4, toluene, 57.0 mM, 60.0 °C, 4.0 h) of 50%. Regarding `CCO[C@@H]1c2nc(cs2)-c2ccc3c(c2)c(c(-c2cc(N4CCN(C(=O)OCc5ccccc5)CC4)cnc2[C@H](C)OC)n3CCOC(C)C)CC2(CC2)COC(=O)[C@@H]2CCCN(N2)C(=O)[C@H]1NC(=O)OC(C)(C)C`, under “from CCO[C@H](c1nc(Br)cs1)[C@H](NC(=O)OC(C)(C)C)C(=O)N1CCC[C@@H](C(=O)OCC2(Cc3c(-c4cc(N5CCN(C(=O)OCc6ccccc6)CC5)cnc4[C@H](C)OC)n(CCOC(C)C)c4ccc(B5OC(C)(C)C(C)(C)O5)cc34)CC2)N1, cc_pd bond, XPhos-Pd-G3/XPhos, K3PO4, toluene, 28.0 mM, 65.0 °C, 2.0 h”, the ring closure, yield of all isomers was 27%. As to `CCn1c(-c2cccnc2[C@H](C)OC)c2c3cc(ccc31)-c1csc(n1)[C@@H](OCC1=CCN(C(=O)OCc3ccccc3)CC1)[C@H](NC(=O)OC(C)(C)C)C(=O)N1CCC[C@H](N1)C(=O)OCC(C)(C)C2`, under “from CCn1c(-c2cccnc2[C@H](C)OC)c(CC(C)(C)COC(=O)[C@@H]2CCCN(C(=O)[C@@H](NC(=O)OC(C)(C)C)[C@H](OCC3=CCN(C(=O)OCc4ccccc4)CC3)c3nc(Br)cs3)N2)c2cc(B3OC(C)(C)C(C)(C)O3)ccc21, cc_pd bond, Pd(dtbpf)Cl2, K3PO4, toluene, 60.0 °C, 2.0 h”, the ring closure, yield of all isomers amounted to 32%. Compound `CC1(C)COC(=O)[C@@H]2CCCN(N2)C(=O)[C@@H](NC(=O)OC(C)(C)C)Cc2nc(cs2)-c2ccc3c(c2)c(c(-c2ccnc(N4CCN(C(=O)OCc5ccccc5)CC4)c2)n3C(C)(C)C#N)C1` registered a ring closure, yield of all isomers (from CC(C)(CO)Cc1c(-c2ccnc(N3CCN(C(=O)OCc4ccccc4)CC3)c2)n(C(C)(C)C#N)c2ccc(-c3csc(C[C@H](NC(=O)OC(C)(C)C)C(=O)N4CCC[C@@H](C(=O)O)N4)n3)cc12, ester bond, EDCI/HOBT/DIPEA, DCM, 1.05 mM, 25.0 °C, 16.0 h) of 52%.

As to `CCO[C@@H]1c2nc(cs2)-c2ccc3c(c2)c(c(-c2cc(N4CCN(C(=O)OCc5ccccc5)CC4)cnc2[C@H](C)OC)n3CCOC(C)C)CC(C)(C)COC(=O)[C@@H]2CCCN(N2)C(=O)[C@H]1NC(=O)OC(C)(C)C`, the ring closure, yield of all isomers (from CCO[C@H](c1nc(Br)cs1)[C@H](NC(=O)OC(C)(C)C)C(=O)N1CCC[C@@H](C(=O)OCC(C)(C)Cc2c(-c3cc(N4CCN(C(=O)OCc5ccccc5)CC4)cnc3[C@H](C)OC)n(CCOC(C)C)c3ccc(B4OC(C)(C)C(C)(C)O4)cc23)N1, cc_pd bond, Pd(dtbpf)Cl2, K3PO4, toluene, 16.0 mM, 65.0 °C, 2.0 h) came to 44%.

The compound `CCn1c(-c2cc(N3CCN(C(=O)OCc4ccccc4)CC3)cnc2[C@H](C)OC)c2c3cc(ccc31)-c1csc(n1)C[C@H](NC(=O)OC(C)(C)C)C(=O)N1CCC[C@H](N1)C(=O)OCC(C)(C)C2` yielded a ring closure, yield of all isomers (from CCn1c(-c2cc(N3CCN(C(=O)OCc4ccccc4)CC3)cnc2[C@H](C)OC)c(CC(C)(C)CO)c2cc(-c3csc(C[C@H](NC(=O)OC(C)(C)C)C(=O)N4CCC[C@@H](C(=O)O)N4)n3)ccc21, ester bond, EDCI/HOBt/DIPEA, MeCN, 10.34 mM, 25.0 °C, 16.0 h) of 54.8%. Turning to `CCO[C@@H]1c2nc(cs2)-c2ccc3c(c2)c(c(-c2cccnc2[C@H](C)OC)n3CC)CC(C)(C)COC(=O)[C@@H]2CCCN(N2)C(=O)[C@H]1NC(=O)OC(C)(C)C`, the ring closure, yield of all isomers (from CCO[C@H](c1nc(Br)cs1)[C@H](NC(=O)OC(C)(C)C)C(=O)N1CCC[C@@H](C(=O)OCC(C)(C)Cc2c(-c3cccnc3[C@H](C)OC)n(CC)c3ccc(B4OC(C)(C)C(C)(C)O4)cc23)N1, cc_pd bond, Pd(DTBpf)Cl2/K3PO4, toluene, 26.7 mM, 60.0 °C, 1.0 h) worked out at 31%. The compound `CC1(C)COC(=O)[C@@H]2CCCN(N2)C(=O)[C@@H](NC(=O)OC(C)(C)C)Cc2nc(cs2)-c2ccc3[nH]c(I)c(c3c2)C1` gave a ring closure, yield of all isomers (from CC(C)(CO)Cc1c(I)[nH]c2ccc(-c3csc(C[C@H](NC(=O)OC(C)(C)C)C(=O)N4CCC[C@@H](C(=O)O)N4)n3)cc12, ester bond, EDCI/HOBt/DIPEA, DCM, 17.57 mM, 25.0 °C, 16.0 h) of 45.9%. Turning to `CO[C@@H](C)c1ncccc1-c1c2c3cc(ccc3n1CCOC1CCOCC1)-c1csc(n1)C[C@H](NC(=O)OC(C)(C)C)C(=O)N1CCC[C@H](N1)C(=O)OCC(C)(C)C2`, the ring closure, yield of all isomers (from CO[C@@H](C)c1ncccc1-c1c(CC(C)(C)CO)c2cc(-c3csc(C[C@H](NC(=O)OC(C)(C)C)C(=O)N4CCC[C@@H](C(=O)O)N4)n3)ccc2n1CCOC1CCOCC1, ester bond, EDCI/HOBt, DIPEA, DCM, 7.0 mM, 25.0 °C, 16.0 h) is 68%.

Under “from CCn1c(-c2cccnc2[C@H](C)OC)c(CC(C)(C)COC(=O)[C@@H]2CCCN(C(=O)[C@@H](NC(=O)OCC3c4ccccc4-c4ccccc43)C(c3nc(Br)cs3)N(C)C)N2)c2cc(B3OC(C)(C)C(C)(C)O3)ccc21, cc_pd bond, Pd(dtbpf)Cl2, toluene, 27.3 mM, 60.0 °C, 1.0 h”, `CCn1c(-c2cccnc2[C@H](C)OC)c2c3cc(ccc31)-c1csc(n1)C(N(C)C)[C@H](NC(=O)OCC1c3ccccc3-c3ccccc31)C(=O)N1CCC[C@H](N1)C(=O)OCC(C)(C)C2` (some centres unmarked) displayed a ring closure, yield of all isomers of 19%.
